Literature values, collected in patent US11351128B1, “Pharmaceutical compositions and methods of administration” (priority 2021, dated 2022).

CCN(CC)C(=S)SSC(=S)N(CC)CC [Disulfiram, tetraethyldisulfane-carbothioamide or 1-(diethylthiocarbamoyl-disulfanyl)-N,N-diethyl-methanethioamide]
soluble in water to the extent of: about 20 mg in 100 ml
